# Measured values taken from paper PMC8915600, “Optimization of experimental conditions for skin-PAMPA measurements” (ADMET & DMPK, 2020).
# Marks after values point to notes of the source that are not given here.
# Assay: not given
# Parameters: method as in earlier work
# Details: octanol-water partition coefficient; cited from earlier work
row,Compound,log Po/w
1,O=c1[nH]cc(F)c(=O)[nH]1 [5-Fluorouracil],-0.89
2,COC1=CC(=O)C[C@@H](C)[C@]12Oc1c(Cl)c(OC)cc(OC)c1C2=O [Griseofulvin],2.18

# Assay: skin-PAMPA membrane stability after pre-treatment at basic pH
# Details: membrane soaked at pH 7, 8, 9, 10 for 30 min or 4 h; then assay 4 h with stirring, donor pH 5, acceptor pH 7.4; versus untreated membrane
# Experimental: Then, a standard permeation assay was carried out with an incubation time of 4 h and stirring at pH 5 in the donor compartment and pH 7.4 in the acceptor compartment. Simultaneously, permeation assays were also performed without the previous soaking treatment at basic pH.
row,Compound,change of skin-PAMPA log Pe after membrane treatment at basic pH
1,Cc1ccccc1N [2-toluidine],remain constant
2,COC1=CC(=O)C[C@@H](C)[C@]12Oc1c(Cl)c(OC)cc(OC)c1C2=O [Griseofulvin],slight increase at pH 9 and 10
3,COc1ccc2c(c1)c(CC(=O)O)c(C)n2C(=O)c1ccc(Cl)cc1 [Indomethacine],remain constant
4,CC(=O)CC(c1ccccc1)c1c(O)c2ccccc2oc1=O (stereo not drawn) [warfarin],slight increase at pH 9 and 10

# Assay: skin-PAMPA permeability assay (gradient-pH, UPLC-DAD)
# Details: PAMPA, log Pe, with stirring, 4 h incubation; neutral form (donor pH 3.0, aminopyrine pH 7.0), acceptor pH 7.4, 32 °C
row,Compound,"Papp at 4 h, 50 μM [×10⁻⁶ cm/s]"
1,O=c1[nH]cc(F)c(=O)[nH]1 [5-Fluorouracil],1.7
2,COC1=CC(=O)C[C@@H](C)[C@]12Oc1c(Cl)c(OC)cc(OC)c1C2=O [Griseofulvin],5.62
3,CC(C)Cc1ccc(C(C)C(=O)O)cc1 (stereo not drawn) [Ibuprofen],245
4,CC(=O)[C@H]1CC[C@H]2[C@@H]3CCC4=CC(=O)CC[C@]4(C)[C@H]3CC[C@]12C [Progesterone],77.6

# Same assay, conditions: PAMPA, log Pe, with stirring, 24 h incubation; neutral form (donor pH 3.0, aminopyrine pH 7.0), acceptor pH 7.4, 32 °C
row,Compound,"Papp at 24 h, 50 μM [×10⁻⁶ cm/s]"
1,O=c1[nH]cc(F)c(=O)[nH]1 [5-Fluorouracil],0.692
2,COC1=CC(=O)C[C@@H](C)[C@]12Oc1c(Cl)c(OC)cc(OC)c1C2=O [Griseofulvin],7.59
3,CC(=O)[C@H]1CC[C@H]2[C@@H]3CCC4=CC(=O)CC[C@]4(C)[C@H]3CC[C@]12C [Progesterone],25.7

# Same assay, conditions: PAMPA, log Pe, without stirring, 30 min incubation; neutral form (donor pH 3.0, aminopyrine pH 7.0), acceptor pH 7.4, 32 °C
row,Compound,"Papp at 30 min, 50 μM [×10⁻⁶ cm/s]"
1,COC1=CC(=O)C[C@@H](C)[C@]12Oc1c(Cl)c(OC)cc(OC)c1C2=O [Griseofulvin],2.24
2,CC(C)Cc1ccc(C(C)C(=O)O)cc1 (stereo not drawn) [Ibuprofen],257
3,CC(=O)[C@H]1CC[C@H]2[C@@H]3CCC4=CC(=O)CC[C@]4(C)[C@H]3CC[C@]12C [Progesterone],15.5

# Same assay, conditions: PAMPA, log Pe, without stirring, 4 h incubation; neutral form (donor pH 3.0, aminopyrine pH 7.0), acceptor pH 7.4, 32 °C
row,Compound,"Papp at 4 h, 50 μM [×10⁻⁶ cm/s]"
1,O=c1[nH]cc(F)c(=O)[nH]1 [5-Fluorouracil],0.339
2,COC1=CC(=O)C[C@@H](C)[C@]12Oc1c(Cl)c(OC)cc(OC)c1C2=O [Griseofulvin],4.68
3,CC(C)Cc1ccc(C(C)C(=O)O)cc1 (stereo not drawn) [Ibuprofen],224
4,CC(=O)[C@H]1CC[C@H]2[C@@H]3CCC4=CC(=O)CC[C@]4(C)[C@H]3CC[C@]12C [Progesterone],13.2

# Same assay, conditions: PAMPA, log Pe, without stirring, 24 h incubation; neutral form (donor pH 3.0, aminopyrine pH 7.0), acceptor pH 7.4, 32 °C
row,Compound,"Papp at 24 h, 50 μM [×10⁻⁶ cm/s]"
1,O=c1[nH]cc(F)c(=O)[nH]1 [5-Fluorouracil],0.851
2,COC1=CC(=O)C[C@@H](C)[C@]12Oc1c(Cl)c(OC)cc(OC)c1C2=O [Griseofulvin],6.31
3,CC(=O)[C@H]1CC[C@H]2[C@@H]3CCC4=CC(=O)CC[C@]4(C)[C@H]3CC[C@]12C [Progesterone],20.4

# Same assay, conditions: PAMPA, pH 7.4, log Pe, optimized assay conditions (4 h incubation, stirring); measured at the pH corresponding to the neutral form; acceptor pH 7.4
row,Compound,"Papp at 4 h, 50 μM [×10⁻⁶ cm/s]"
1,"Cc1ccc(C(C)C)c(O)c1 [2-Isopropyl-5-Methylphenol (Thymol), 2-Isopropyl-5-Methylphenol]",97.7
2,Nc1ccc(O)c([N+](=O)[O-])c1 [4-Amino-2-nitrophenol],25.7
3,CCc1ccc(O)cc1 [4-Ethylphenol],64.6
4,OCc1ccc(O)cc1 [4-Hydroxybenzyl alcohol],1.41
5,NC(=O)Cc1ccc(O)cc1 [4-Hydroxyphenylacetamide],0.851
6,COc1c2occc2cc2ccc(=O)oc12 [8-Methoxypsoralen],50.1
7,O=C(OCc1ccccc1)c1cccnc1 [Benzyl nicotinate],69.2
8,Oc1ccccc1O [Catechol],4.07
9,C[C@]12CCC(=O)C=C1CC[C@@H]1[C@@H]2CC[C@@]2(C)[C@H]1CC[C@]2(O)C(=O)CO [Cortexolone],3.55
10,O=C(O)Cc1ccccc1Nc1c(Cl)cccc1Cl [Diclofenac],162

# Continued, values first:
row,"Papp at 4 h, 50 μM [×10⁻⁶ cm/s]",Compound
1,4.17,CC(=O)OCC(=O)[C@@]12OC(C)(C)O[C@@H]1C[C@H]1[C@@H]3C[C@H](F)C4=CC(=O)C=C[C@]4(C)[C@@]3(F)[C@@H](O)C[C@@]12C [Fluocinonide]
2,5.25,COC1=CC(=O)C[C@@H](C)[C@]12Oc1c(Cl)c(OC)cc(OC)c1C2=O [Griseofulvin]
3,39.8,COc1ccc2c(c1)c(CC(=O)O)c(C)n2C(=O)c1ccc(Cl)cc1 [Indomethacine]
4,74.1,CC(=O)[C@H]1CC[C@H]2[C@@H]3CCC4=CC(=O)CC[C@]4(C)[C@H]3CC[C@]12C [Progesterone]

# Same assay, conditions: mole fraction; with stirring, 30 min incubation; neutral form
row,Compound,RM (membrane retention)
1,O=c1[nH]cc(F)c(=O)[nH]1 [5-Fluorouracil],0.00
2,COC1=CC(=O)C[C@@H](C)[C@]12Oc1c(Cl)c(OC)cc(OC)c1C2=O [Griseofulvin],0.06(±0.01)
3,CC(C)Cc1ccc(C(C)C(=O)O)cc1 (stereo not drawn) [Ibuprofen],0.22(±0.03)
4,CC(=O)[C@H]1CC[C@H]2[C@@H]3CCC4=CC(=O)CC[C@]4(C)[C@H]3CC[C@]12C [Progesterone],0.50(±0.04)

# Same assay, conditions: mole fraction; with stirring, 4 h incubation; neutral form
row,Compound,RM (membrane retention)
1,O=c1[nH]cc(F)c(=O)[nH]1 [5-Fluorouracil],0.04(±0.04)
2,COC1=CC(=O)C[C@@H](C)[C@]12Oc1c(Cl)c(OC)cc(OC)c1C2=O [Griseofulvin],0.19(±0.01)
3,CC(C)Cc1ccc(C(C)C(=O)O)cc1 (stereo not drawn) [Ibuprofen],0.00
4,CC(=O)[C@H]1CC[C@H]2[C@@H]3CCC4=CC(=O)CC[C@]4(C)[C@H]3CC[C@]12C [Progesterone],0.74(±0.01)

# Same assay, conditions: mole fraction; with stirring, 24 h incubation; neutral form
row,Compound,RM (membrane retention)
1,O=c1[nH]cc(F)c(=O)[nH]1 [5-Fluorouracil],0.08(±0.03)
2,COC1=CC(=O)C[C@@H](C)[C@]12Oc1c(Cl)c(OC)cc(OC)c1C2=O [Griseofulvin],0.24(±0.02)
3,CC(C)Cc1ccc(C(C)C(=O)O)cc1 (stereo not drawn) [Ibuprofen],0.00
4,CC(=O)[C@H]1CC[C@H]2[C@@H]3CCC4=CC(=O)CC[C@]4(C)[C@H]3CC[C@]12C [Progesterone],0.88(±0.01)

# Same assay, conditions: mole fraction; without stirring, 30 min incubation; neutral form
row,Compound,RM (membrane retention)
1,O=c1[nH]cc(F)c(=O)[nH]1 [5-Fluorouracil],0.00
2,COC1=CC(=O)C[C@@H](C)[C@]12Oc1c(Cl)c(OC)cc(OC)c1C2=O [Griseofulvin],0.03(±0.02)
3,CC(C)Cc1ccc(C(C)C(=O)O)cc1 (stereo not drawn) [Ibuprofen],0.19(±0.07)
4,CC(=O)[C@H]1CC[C@H]2[C@@H]3CCC4=CC(=O)CC[C@]4(C)[C@H]3CC[C@]12C [Progesterone],0.33(±0.01)

# Same assay, conditions: mole fraction; without stirring, 4 h incubation; neutral form
row,Compound,RM (membrane retention)
1,O=c1[nH]cc(F)c(=O)[nH]1 [5-Fluorouracil],0.01(±0.03)
2,COC1=CC(=O)C[C@@H](C)[C@]12Oc1c(Cl)c(OC)cc(OC)c1C2=O [Griseofulvin],0.16(±0.01)
3,CC(C)Cc1ccc(C(C)C(=O)O)cc1 (stereo not drawn) [Ibuprofen],0.09(±0.03)
4,CC(=O)[C@H]1CC[C@H]2[C@@H]3CCC4=CC(=O)CC[C@]4(C)[C@H]3CC[C@]12C [Progesterone],0.62(±0.04)

# Same assay, conditions: mole fraction; without stirring, 24 h incubation; neutral form
row,Compound,RM (membrane retention)
1,O=c1[nH]cc(F)c(=O)[nH]1 [5-Fluorouracil],0.05(±0.02)
2,COC1=CC(=O)C[C@@H](C)[C@]12Oc1c(Cl)c(OC)cc(OC)c1C2=O [Griseofulvin],0.20(±0.02)
3,CC(C)Cc1ccc(C(C)C(=O)O)cc1 (stereo not drawn) [Ibuprofen],0.00
4,CC(=O)[C@H]1CC[C@H]2[C@@H]3CCC4=CC(=O)CC[C@]4(C)[C@H]3CC[C@]12C [Progesterone],0.83(±0.02)

# Same assay, conditions: optimized assay conditions (4 h incubation, stirring); measured at the pH corresponding to the neutral form; acceptor pH 7.4
row,Compound,log Pe [cm/s]
1,O=c1[nH]cc(F)c(=O)[nH]1 [5-Fluorouracil],-5.77±0.02
2,CC(C)Cc1ccc(C(C)C(=O)O)cc1 (stereo not drawn) [Ibuprofen],-3.61±0.06

# Same assay, conditions: range over all incubation times (30 min, 4 h, 24 h), with and without stirring
row,Compound,RM (membrane retention)
1,CC(=O)[C@H]1CC[C@H]2[C@@H]3CCC4=CC(=O)CC[C@]4(C)[C@H]3CC[C@]12C [Progesterone],0.33-0.88

# Same assay, conditions: with stirring, 30 min incubation; neutral form (donor pH 3.0, aminopyrine pH 7.0), acceptor pH 7.4, 32 °C
row,Compound,log Pe
1,COC1=CC(=O)C[C@@H](C)[C@]12Oc1c(Cl)c(OC)cc(OC)c1C2=O [Griseofulvin],-5.61(±0.01) cm/s
2,CC(C)Cc1ccc(C(C)C(=O)O)cc1 (stereo not drawn) [Ibuprofen],-2.71(±0.04) cm/s
3,CC(=O)[C@H]1CC[C@H]2[C@@H]3CCC4=CC(=O)CC[C@]4(C)[C@H]3CC[C@]12C [Progesterone],-3.25(±0.25) cm/s

# Same assay, conditions: without stirring, 4 h incubation; neutral form (donor pH 3.0, aminopyrine pH 7.0), acceptor pH 7.4, 32 °C
row,Compound,log Pe [cm/s]
1,O=c1[nH]cc(F)c(=O)[nH]1 [5-Fluorouracil],-6.47
2,CC(=O)[C@H]1CC[C@H]2[C@@H]3CCC4=CC(=O)CC[C@]4(C)[C@H]3CC[C@]12C [Progesterone],-4.88

# Assay: not given
# Details: logarithm of human skin permeation coefficient, neutral form; corrected for ionization in water and for temperature at 37 °C; cited from earlier work
row,Compound,log Kp [cm/s]
1,"Cc1ccc(C(C)C)c(O)c1 [2-Isopropyl-5-Methylphenol (Thymol), 2-Isopropyl-5-Methylphenol]",-4.35
2,Nc1ccc(O)c([N+](=O)[O-])c1 [4-Amino-2-nitrophenol],-5.91
3,CCc1ccc(O)cc1 [4-Ethylphenol],-4.53
4,OCc1ccc(O)cc1 [4-Hydroxybenzyl alcohol],-6.26
5,NC(=O)Cc1ccc(O)cc1 [4-Hydroxyphenylacetamide],-6.89
6,O=c1[nH]cc(F)c(=O)[nH]1 [5-Fluorouracil],-6.82
7,O=C(OCc1ccccc1)c1cccnc1 [Benzyl nicotinate],-4.87
8,Oc1ccccc1O [Catechol],-5.87
9,C[C@]12CCC(=O)C=C1CC[C@@H]1[C@@H]2CC[C@@]2(C)[C@H]1CC[C@]2(O)C(=O)CO [Cortexolone],-7.20
10,O=C(O)Cc1ccccc1Nc1c(Cl)cccc1Cl [Diclofenac],-5.30
11,COC1=CC(=O)C[C@@H](C)[C@]12Oc1c(Cl)c(OC)cc(OC)c1C2=O [Griseofulvin],-6.44
12,CC(C)Cc1ccc(C(C)C(=O)O)cc1 (stereo not drawn) [Ibuprofen],-4.58
13,COc1ccc2c(c1)c(CC(=O)O)c(C)n2C(=O)c1ccc(Cl)cc1 [Indomethacine],-5.39
14,CC(=O)[C@H]1CC[C@H]2[C@@H]3CCC4=CC(=O)CC[C@]4(C)[C@H]3CC[C@]12C [Progesterone],-4.90

# Assay: not given
# Details: cited from earlier work
row,Compound,pKa
1,O=c1[nH]cc(F)c(=O)[nH]1 [5-Fluorouracil],7.86 ^a
